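Where inhibition never reached the appropriate level, the endpoint shown equals the highest concentration tested. Otherwise, values were interpolated linearly from a five-concentration, 48-hour dose response in 96-well plates. GI50 = concentration required for 50% inhibition of growth. TGI: concentration producing complete growth inhibition.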
How the values were obtained:
Assay in all cases: NCI-60 cell line screen, 48 h
786-0 renal = system: 786-0 renal
A549 NSCLC = system: A549 NSCLC
DU-145 prostate = system: DU-145 prostate
HOP-92 NSCLC = system: HOP-92 NSCLC
MDA-MB-231 breast = system: MDA-MB-231 breast
MOLT-4 leukemia = system: MOLT-4 leukemia
NCI-H23 lung = system: NCI-H23 lung
NCI-H460 lung = system: NCI-H460 lung
SK-MEL-28 melanoma = system: SK-MEL-28 melanoma
SNB-75 CNS = system: SNB-75 CNS
SW-620 colon = system: SW-620 colon

SMILES | TGI (786-0 renal) [µM] | TGI (A549 NSCLC) [µM] | TGI (DU-145 prostate) [µM] | TGI (HOP-92 NSCLC) [µM] | TGI (MDA-MB-231 breast) [µM] | TGI (MOLT-4 leukemia) [µM] | TGI (NCI-H23 lung) [µM] | TGI (NCI-H460 lung) [µM] | TGI (SK-MEL-28 melanoma) [µM] | TGI (SNB-75 CNS) [µM] | TGI (SW-620 colon) [µM] | GI50 (MOLT-4 leukemia) [µM] | GI50 (NCI-H23 lung) [µM]
Cc1nc2sccn2c1/C=C1/C(=O)Nc2cccc(Cl)c21 | > 100 | > 100 | > 100 | > 100 | > 100 | > 100 | > 100 | > 100 | > 100 | > 100 | > 100 | – | –
COC(=O)/C=C1/OC(c2ccc(OC)cc2)=C(Cl)C1=O | 24.4 | 56.4 | 36.6 | 57.5 | 26.2 | 12.3 | 34.9 | 42.9 | 32.6 | 37.3 | 28.1 | – | –
CCOP(=O)(OCC)OC1c2[nH]cc(C(=O)OCc3ccccc3)c2-c2cc(C(=O)OC)[nH]c2C1OC (configuration not stated) | 27.4 | > 61.2 | 89.8 | 26.3 | 37 | > 100 | > 100 | > 100 | > 100 | 56.2 | > 100 | – | –
O=C(N/N=C/c1ccccc1)c1cccc2nc3ccccc3nc12 | > 100 | > 84 | > 100 | > 100 | > 100 | > 100 | > 69.2 | 31.4 | > 100 | > 100 | > 100 | – | –
BrCC[N+]12CC[N+](CCBr)(CC1)C2 | > 100 | > 100 | > 100 | > 100 | > 100 | > 100 | > 100 | > 100 | > 100 | > 100 | > 100 | – | –
O=C(OCCNC(=O)N1CC1)OCCNC(=O)N1CC1 | > 10 | > 10 | > 10 | > 10 | > 10 | > 10 | > 10 | > 10 | > 10 | > 10 | > 10 | – | –
CC1=C(C)SC(=C2Sc3nc(O)[nH]c(=O)c3S2)S1 | > 100 | > 100 | > 100 | > 100 | > 100 | > 100 | > 100 | > 100 | > 100 | > 100 | > 100 | – | –
C=C1C[C@H](O)[C@H](Br)C(C)(C)C12CCC(C)(Cl)C(Br)C2 (some centres not stated) | 15.4 | 9.12 | 15.8 | 8.76 | 11.3 | 75 | 7.98 | 9.95 | 19 | 11.2 | 20.4 | – | –
COc1cc(OC)c2[nH]c3c(O)c(-c4c(C)cc5c([nH]c6c(OC)cc(OC)cc65)c4O)c(C)cc3c2c1 | 15.1 | 13.3 | 15 | 15.6 | 19.1 | 21.9 | 16.7 | 16.6 | 19.5 | 15.5 | 20.3 | 8.59 | 8.2
O=C1CC(=O)NC(=NNS(=O)(=O)c2ccc(Cl)cc2)N1 | > 100 | > 100 | > 100 | > 100 | > 100 | > 100 | > 100 | > 100 | > 100 | > 100 | > 100 | – | –
CCCCCCCCCCCCCCCCCCOCC(O)COP(=O)(O)OCC1OC(n2ccc(N)nc2=O)C(O)C1O (configuration not stated) | 26.5 | > 100 | > 100 | 71.8 | 64.7 | 20 | > 100 | 14.8 | > 100 | 28.7 | > 100 | – | –
O=c1oc2c(Cl)cc(Cl)cc2cc1C1=CSC2=NCCN12 | > 100 | > 100 | > 100 | > 100 | > 100 | > 100 | > 100 | > 100 | > 100 | > 100 | > 100 | – | –
O=C(c1cc2c(c3ccccc13)NC1(CCCCC1)N=C2C(F)(F)F)C(F)(F)F | 14.1 | 16.3 | 19.6 | 13.4 | 9.83 | 14.5 | 12.5 | 10.9 | 22.6 | 19.1 | 18.7 | – | –
COC(=O)CCC(NC(=O)OC(C)(C)C)C(=O)NC(Cc1ccc(NC(=O)CCCC(C)=O)cc1)C(=O)NC(CCC(=O)OC)C(=O)OC (configuration not stated) | > 100 | > 100 | > 100 | > 100 | > 100 | > 100 | > 100 | > 100 | > 100 | > 100 | > 100 | – | –
Cc1ccc(C(=O)N/N=C(\N=Nc2ccc(C(=O)O)cc2)c2ccc(N(CCC#N)CCC#N)cc2C)cc1 | > 100 | > 100 | > 100 | > 100 | > 100 | > 100 | > 100 | > 100 | > 100 | > 100 | > 100 | – | –
O=C(c1ccccc1)N1C(=S)N(c2ccccn2)C(=Nc2ccccc2)C1=Nc1ccccc1 | > 82.8 | > 100 | > 100 | 20.8 | > 71.9 | > 54.8 | > 36.5 | > 70.6 | > 100 | > 100 | > 65.6 | – | –
CC(=O)N(C(C)=O)c1cc2c3c(c1)CCCN3CCC2 | > 10 | > 10 | > 10 | > 10 | > 10 | > 10 | > 10 | > 10 | > 10 | > 10 | > 10 | – | –
CC(Cl)CC(=O)OCC1CCCN2CCCCC12 (configuration not stated) | > 100 | > 100 | > 100 | > 100 | > 100 | > 100 | > 100 | > 100 | > 100 | > 100 | > 100 | – | –
CCOC(=O)c1cccc(NC(=O)CI)c1 | 0.307 | 3.41 | 3.34 | 3.57 | 2.91 | 0.221 | 0.521 | 3.77 | 5.86 | 2.87 | 1.64 | – | –
CCOC(=O)c1c(NC(=S)Nc2ccccc2)sc2c1CCOC2 | > 100 | > 100 | > 100 | 89.4 | > 100 | > 100 | > 100 | > 100 | > 100 | 62.1 | > 100 | – | –
CN(C)c1ccc(C=C2C(=O)NC(=S)NC2=O)c2ccccc12 | > 100 | > 100 | > 100 | 91.4 | > 100 | > 100 | > 100 | > 100 | > 100 | > 100 | > 100 | – | –
COc1cccc(C2c3cc4c(cc3OC(Nc3ccccc3)C2C)OCO4)c1OC (configuration not stated) | 22.9 | > 100 | > 100 | 60.1 | > 100 | 17.9 | > 100 | > 100 | > 100 | > 100 | > 100 | – | –
CN(C)Cc1cc(N=Nc2ccc(Cl)cc2)cc(CN(C)C)c1O | 17.9 | 21.3 | 35.4 | 21.7 | 20.9 | 10.7 | 40.7 | 18.1 | 23.9 | 25.8 | 21.1 | – | –
CC(C)Oc1c(-c2ccc(F)cc2)c(O)c2c3c1oc(=O)n3C=CC2C (configuration not stated) | 27.8 | 28 | 51.6 | 28 | 28.7 | 39.2 | 24.6 | 29.1 | 30.9 | 31.3 | 28.5 | – | –
CC(=O)OC(C)(C)CCC(=O)[C@](C)(O)[C@H]1[C@H](O)C[C@@]2(C)[C@@H]3CCc4c(cc(OC5OC(CO)C(O)C(O)C5O)c(O)c4C)C3(C)C(=O)C[C@]12C (some centres not stated) | > 100 | > 100 | > 100 | > 100 | > 100 | > 100 | > 100 | > 100 | > 100 | > 100 | > 100 | – | –
Fc1ccc(C(OCCN2CC3CCC(C2)N3CCCc2ccccc2)c2ccc(F)cc2)cc1 | 13.4 | 21.5 | 22.6 | 21.1 | 10.2 | 9.01 | 15.3 | 9.75 | 22.2 | 17 | 17.3 | – | –
CSc1nc2c(c(=O)[nH]1)N=C(c1ccccc1)CC(c1ccccc1)N2 (configuration not stated) | > 100 | > 100 | > 100 | > 100 | 45.5 | 59.6 | 98.2 | 27.2 | > 100 | 44.6 | > 100 | – | –
CC(=O)CC1=C(OC(C)C)C2(OCCO2)C1O (configuration not stated) | > 100 | > 100 | > 100 | > 100 | > 100 | > 100 | > 100 | > 100 | > 100 | > 100 | > 100 | – | –
c1ccc2c(c1)OC(N1CCCC1)c1cnc(N3CCOCC3)nc1-2 (configuration not stated) | > 100 | > 100 | > 100 | 55.6 | > 100 | > 100 | 30.9 | > 100 | > 100 | 54.4 | > 100 | – | –
O=C1CC(NCc2ccccc2)c2c(Cl)sc(Cl)c21 (configuration not stated) | 57.8 | > 100 | > 66.5 | 64.8 | 66.4 | 43.2 | 39.5 | > 100 | 76.7 | 80.6 | > 87.4 | – | –
